Like-named read-outs stand apart in the source and are kept apart here.
Key:
[1] = system: basolateral organic anion transport system; settings: Ullrich and Rumrich, Am. J. Physiol. 254, F453-462, 1988; read-out: Km value previously reported for the basolateral organic anion transport system; cited from earlier work
[2] = molecular target: T1, rat OAT1 (Rattus norvegicus, UniProt O35956); assay: Uptake of radio labeled substances into oocytes expressing OAT1; type: cell-based
T1 construct: with full-length OAT1 cDNA labeled with; expressed in transfected cells; host or cells: Xenopus laevis oocytes injected with in vitro transcribed cRNA
T1 sequence (O35956 1-551): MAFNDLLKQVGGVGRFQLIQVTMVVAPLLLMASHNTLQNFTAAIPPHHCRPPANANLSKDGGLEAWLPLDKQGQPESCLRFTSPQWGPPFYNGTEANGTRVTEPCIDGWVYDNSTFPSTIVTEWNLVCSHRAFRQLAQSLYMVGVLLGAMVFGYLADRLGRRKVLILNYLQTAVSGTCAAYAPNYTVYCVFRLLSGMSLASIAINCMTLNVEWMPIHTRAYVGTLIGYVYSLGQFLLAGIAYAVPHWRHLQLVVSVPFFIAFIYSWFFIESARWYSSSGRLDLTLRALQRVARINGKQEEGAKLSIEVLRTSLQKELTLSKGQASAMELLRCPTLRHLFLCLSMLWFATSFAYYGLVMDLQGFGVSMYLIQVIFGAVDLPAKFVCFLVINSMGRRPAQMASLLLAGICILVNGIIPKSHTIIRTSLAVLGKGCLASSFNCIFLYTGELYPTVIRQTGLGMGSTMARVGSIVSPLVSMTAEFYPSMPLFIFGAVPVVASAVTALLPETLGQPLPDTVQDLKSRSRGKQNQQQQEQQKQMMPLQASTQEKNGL
From the text: Several radio labeled compounds were examined whether they are taken up into oocytes via OAT1.
Control oocytes were those which were not injected with cRNA.

[3] = molecular target: T1, rat OAT1; assay: Cis-inhibition of 14C-PAH uptake in oocytes injected with rat OAT1 cRNA; type: cell-based; settings: 2 μM 14C-PAH, 2 mM non-labeled substance, ND96 solution; for inhibition at 1 h, 2 mM: rat, oocytes injected with rat OAT1 cRNA, probe 14C-PAH (p-aminohippurate), read-out: inhibition of OAT1-mediated 14C-PAH uptake
[4] = versus control oocytes not injected with cRNA

Row | Structure (SMILES) | transport of radio labeled substance into oocytes expressing OAT1 [2, 4] | cis-inhibitory effect on OAT1-mediated 14C-PAH uptake (in words) [3] | inhibition at 1 h, 2 mM [3] [%] | also measured
1 | Nc1ccc(C(=O)NCC(=O)O)cc1 [PAH, para-aminohippurate] | – | – | – | Km [1]: 80 µM
2 | C[C@H](CCC(=O)NCCS(=O)(=O)O)[C@H]1CC[C@H]2[C@@H]3[C@H](O)C[C@@H]4C[C@H](O)CC[C@]4(C)[C@H]3C[C@H](O)[C@]12C [^3H-taurocholic acid, taurocholic acid] | – | – | – | transport of radio labeled substance into oocytes expressing OAT1 [2]: not detected
3 | CC[N+](CC)(CC)CC [^14C-TEA, tetraethylammonium, reference compound] | not detected | – | – | –
4 | Nc1ncnc2c1ncn2[C@@H]1O[C@@H]2COP(=O)(O)O[C@H]2[C@H]1O [cyclic-AMP] | – | inhibited | – | transport of radio labeled substance into oocytes expressing OAT1 [2]: transported
5 | Nc1nc2c(ncn2[C@@H]2O[C@@H]3COP(=O)(O)O[C@H]3[C@H]2O)c(=O)[nH]1 [cyclic-GMP] | transported | inhibited | – | –
6 | C=C(CC)C(=O)c1ccc(OCC(=O)O)c(Cl)c1Cl [ethacrynic acid] | – | – | > 85 | –
7 | COc1ccc2c(c1)c(CC(=O)O)c(C)n2C(=O)c1ccc(Cl)cc1 [indomethacin] | – | – | > 85 | –
8 | CCn1cc(C(=O)O)c(=O)c2ccc(C)nc21 [nalidixic acid] | – | – | > 85 | –
9 | O=c1[nH]c(=O)c2[nH]c(=O)[nH]c2[nH]1 [uric acid] | transported | inhibited | – | –
10 | CCCC(CCC)C(=O)O [valproic acid] | – | – | > 85 | –
